Measurements reported in paper PMC7967160, “Synthesis and Antiviral Evaluation of (1,4-Disubstituted-1,2,3-Triazol)-(E)-2-Methyl-but-2-Enyl Nucleoside Phosphonate Prodrugs” (Molecules, 2021).

Experiments:
[1] = test system: HIV-1 LAI; experiment: HIV assay in human PBM cells infected with HIV-1 LAI, RT quantification; type: cell-based; settings: for inhibition at 10 µM: Human immunodeficiency virus 1, PBMC, PBM cells, HIV-1 LAI
Description: The assay was performed as described by Schinazi et al. with minor modifications. […] The supernatants were harvested, and the HIV-1 RT was quantified.

[2] = test system: SARS-CoV-2 strain BavPat1; experiment: SARS-CoV-2 assay in Vero E6 cells (CellTiter-Blue); settings: 10 μM
[3] = test system: HBV; experiment: HBV assay in HepAD38 cells, real-time PCR for HBV DNA in supernatant; type: cell-based; settings: Hepatitis B virus, 168 h, 7 days
Description: In HepAD38 cells were seeded at 50,000 cells/well in collagen-coated 96-well plates. Test compounds or 2′,3′-didéoxy-3′-thiacytidin (3TC) (control) were added to HepAD38 cells to a final concentration of 10 μM.
Real-Time PCR for HBV DNA. The experiment lasted 7 days. On day 7, total DNA was purified from the supernatant using a commercially available kit (DNeasy 96 Blood & Tissue kit, Qiagen). The HBV DNA was amplified in a real-time PCR assay using a LightCycler 480 (Roche) as described elsewhere. All samples were tested in duplicate in two to three independent experiments. Analysis: The concentration of compound that inhibited HBV DNA replication by 50% (EC50) was determined by linear regression.

[4] = Cytotoxicity MTS assay in HepG2 cells; type: cell-based; settings: human
Description: (§1) Assays were performed in human peripheral blood mononuclear (PBM) and human liver (HepG2) cells via MTS assay using the CellTiter 96® Non-Radioactive Cell Proliferation (Promega) kit as previously described^3. Cytotoxicity was expressed as the concentration of test compounds that inhibited cell proliferation by 50% (IC50) and calculated using the Chou and Talalay method.

[5] = test system: HBV; experiment: HBV assay in Huh7 cells transfected with pCI_HBVpg1820, intracapsid viral DNA by real-time PCR; type: cell-based, hepatitis B virus (HBV); settings: for inhibition at 10 µM: Hepatitis B virus, Huh-7, 96 h
Description: In Huh7 cells: antiviral activity against HBV in cell culture was measured as previously described. Briefly, Huh7 cells were transfected with plasmid pCI_HBVpg1820 containing 1.1 unit of HBV genome under the control of a human cytomegalovirus (CMV) promoter. The drugs were stored at 1000× in DMSO at −20 °C. For each experiment, the drugs were diluted in DMEM cell culture medium (Thermo Fisher Scientific, Artenay, France) to a final concentration of 10 μM. All drugs were tested in triplicate in two independent experiments. After 4 days of culture, intracapsid viral DNA was quantified by duplex real-time PCR, using primers described elsewhere, on a LightCycler 480 II apparatus (Roche Diagnostics France, Meylan, France) using TaqMan Universal PCR Mastermix II without UNG (Thermo Fisher Scientific, Artenay, France). Cells were quantified using primers by real-time PCR, using primers HPRT1_F (5′-[…]) and HPRT1_R (5′-[…]), on a LightCycler 480 II apparatus (Roche) using a LightCycler® 480 SYBR Green I Master (Roche Diagnostics France, Meylan, France). Cycling reactions were performed with the following parameters: 5 min at 95 °C, followed by 45 cycles of 10 s at 95 °C, 15 s at 60 °C, 10 s at 72 °C. The inhibition of HBV replication (%) and cell culture viability (%) were quantified using the following formulas. Inhibition of HBV replication (%)=1− HBV DNA copy numberDrug/HBV DNA copy numberCell culture medium Cell viability (%)= HPRT1 DNA copy numberDrug/HPRT1 DNA copy numberCell culture medium

[6] = in vitro; type: cell-based; settings: human; PBM cells; read-out: MTS Cytotoxicity (IC50, μM) PBM
Description: as §1

[7] = Cell culture viability in the Huh7 HBV assay (HPRT1 DNA copy number); settings: human
[8] = read-out: HBV % Inhibition Huh7, 10 μM, Huh7 cells, 4 days
[9] = 10 μM, Huh7 cells, 4 days, read-out: HBV % Inhibition Huh7

Structure (SMILES)	EC50 ([1]; positive control, data not shown, read-out: EC50 anti-HIV) [µM]	SARS-CoV-2 % Inhibition Vero E6 [2] [%]	inhibition at 10 µM [3] [%]	IC50 [4] [µM]	inhibition at 10 µM [1] [%]	HBV % Inhibition Huh7 ([5]; 10 μM, Huh7 cells, 4 days) [%]	inhibition at 10 µM [5, 8] [%]	IC50 [6] [µM]	viability at 4 days, 10 µM [7] [%]	inhibition at 10 µM [5, 9] [%]
Cc1cn([C@H]2C[C@H](N=[N+]=[N-])[C@@H](CO)O2)c(=O)[nH]c1=O [AZT, reference compound]	0.008									
CCCc1ccc(-c2cn(C/C(C)=C/CP(=O)(OCOC(=O)OC(C)C)OCOC(=O)OC(C)C)nn2)cc1 [Compound 11a, [[(E)-4-[4-(4-Propylphenyl)triazol-1-yl]-3-methyl-but-2-enyl]-(isopropoxycarbonyloxymethoxy)phosphoryl]oxymethyl isopropyl carbonate]		<1	19.6	18.3	< 1	51	> 40	50.2	96	
CCCCc1ccc(-c2cn(C/C(C)=C/CP(=O)(OCOC(=O)OC(C)C)OCOC(=O)OC(C)C)nn2)cc1 [Compound 11b, [[(E)-4-[4-(4-Butylphenyl)triazol-1-yl]-3-methyl-but-2-enyl]-(isopropoxycarbonyloxymethoxy)phosphoryl]oxymethyl isopropyl carbonate]		<1	14.4	16.2	< 1			19.4	88	25
CCCCCc1ccc(-c2cn(C/C(C)=C/CP(=O)(OCOC(=O)OC(C)C)OCOC(=O)OC(C)C)nn2)cc1 [Compound 11c, [[(E)-4-[4-(4-Pentylphenyl)triazol-1-yl]-3-methyl-but-2-enyl]-(isopropoxycarbonyloxymethoxy)phosphoryl]oxymethyl isopropyl carbonate]		<1	< 1	51.8	44.4	42	> 40	47.8	89	
CCCCCCc1ccc(-c2cn(C/C(C)=C/CP(=O)(OCOC(=O)OC(C)C)OCOC(=O)OC(C)C)nn2)cc1 [Compound 11d, [[(E)-4-[4-(4-Hexylphenyl)triazol-1-yl]-3-methyl-but-2-enyl]-(isopropoxycarbonyloxymethoxy)phosphoryl]oxymethyl isopropyl carbonate]		<1	38.8	59.6	41.8			23.7	100	39
CCCCCCCc1ccc(-c2cn(C/C(C)=C/CP(=O)(OCOC(=O)OC(C)C)OCOC(=O)OC(C)C)nn2)cc1 [Compound 11e, [[(E)-4-[4-(4-Heptylphenyl)triazol-1-yl]-3-methyl-but-2-enyl]-(isopropoxycarbonyloxymethoxy)phosphoryl]oxymethyl isopropyl carbonate]		<1	33.5	90.8	29.9	50	> 40	9.2	95	
C/C(=C\CP(=O)(OCOC(=O)OC(C)C)OCOC(=O)OC(C)C)Cn1cc(C2CC2)nn1 [Compound 11f, [[(E)-4-(4-Cyclopropyltriazol-1-yl)-3-methyl-but-2-enyl]-(isopropoxycarbonyloxymethoxy)phosphoryl]oxymethyl isopropyl carbonate]		<1	36.3	> 100	30.7			25.5	100	< 1
C/C(=C\CP(=O)(OCOC(=O)OC(C)C)OCOC(=O)OC(C)C)Cn1cc(C(C)(C)C)nn1 [Compound 11g, [[(E)-4-(4-tert-Butyltriazol-1-yl)-3-methyl-but-2-enyl]-(isopropoxycarbonyloxymethoxy)phosphoryl]oxymethyl isopropyl carbonate]		<1	17.3	> 100	12.3			28.3	79	10
C/C(=C\CP(=O)(OCOC(=O)OC(C)C)OCOC(=O)OC(C)C)Cn1cc(CO)nn1 [Compound 11h, [[(E)-4-[4-(Hydroxymethyl)triazol-1-yl]-3-methyl-but-2-enyl]-(isopropoxycarbonyloxymethoxy)phosphoryl]oxymethyl isopropyl carbonate]		12	15.1	> 100	< 1			76.4	100	28
C/C(=C\CP(=O)(OCOC(=O)OC(C)C)OCOC(=O)OC(C)C)Cn1cc(C=O)nn1 [Compound 11i, [[(E)-4-(4-Formyltriazol-1-yl)-3-methyl-but-2-enyl]-(isopropoxycarbonyloxymethoxy)phosphoryl]oxymethyl isopropyl carbonate]		<1	6.1	> 100	28.4			75.1	95	33
C/C(=C\CP(=O)(OCOC(=O)OC(C)C)OCOC(=O)OC(C)C)Cn1cc(C(=O)O)nn1 [Compound 11m, 1-[(E)-4-[Bis(isopropoxycarbonyloxymethoxy)phosphoryl]-2-methyl-but-2-enyl]triazole-4-carboxylic acid]		<1	41.3	> 100	12.9				57	12
CCCCCCCCCCCCCCCCOCCCOP(=O)(C/C=C(\C)Cn1cc(-c2ccc(CCC)cc2)nn1)OCOC(=O)OC(C)C (stereo not shown) [Compound 15a, [3-Hexadecyloxypropoxy-[(E)-3-methyl-4-[4-(4-propylphenyl]triazol-1-yl]but-2-enyl]phosphoryl]oxymethyl isopropyl carbonate]		<1							95	< 1
CCCCCCCCCCCCCCCCOCCCOP(=O)(C/C=C(\C)Cn1cc(-c2ccc(CCCCCCC)cc2)nn1)OCOC(=O)OC(C)C (stereo not shown) [Compound 15e, [3-Hexadecyloxypropoxy-[(E)-3-methyl-4-[4-(heptylphenyl)triazol-1-yl]but-2-enyl]phosphoryl]oxymethyl isopropyl carbonate]		<1							100	8
CCCCCCCCCCCCCCCCOCCCOP(=O)(C/C=C(\C)Cn1cc(-c2ccc([N+](=O)[O-])cc2)nn1)OCOC(=O)OC(C)C (stereo not shown) [Compound 15l, [3-Hexadecyloxypropoxy-[(E)-3-methyl-4-[4-(nitrophenyl)triazol-1-yl]but-2-enyl]phosphoryl]oxymethyl isopropyl carbonate]		<1							100	12
CCC(CC)COC(=O)[C@H](C)N[P@](=O)(OC[C@H]1O[C@@](C#N)(c2ccc3c(N)ncnn23)[C@H](O)[C@@H]1O)Oc1ccccc1 [Remdesivir, reference compound]		100								
C[C@@H]1C[C@@H]([C@H](O)CC2CC(=O)NC(=O)C2)C(=O)[C@@H](C)C1 [cycloheximide, reference compound]				1.5				1		
